pKi: −log10 of the molar value. Converted amounts (≈) assume the structure as drawn. Like-named read-outs stand apart in the source and are kept apart here.
Experiments:
C. albicans 5 strains = test system: T1, C. albicans 5 strains; test: microbe, parasite or virus in culture; parameters: species or system clinical Candida isolates; broth microdilution antifungal MIC, visual growth inhibition, CLSI; conditions: Candida albicans, 24 h, read-out: Tested Fungi (MIC Values μg/mL) / C. albicans 5 strains
T1 construct: 5 clinical isolates
Method: (§1) The in vitro antifungal activities were determined by the broth microdilution method with sabouraud dextrose broth (BBL Microbiology Systems, Cockeysville, MD, USA), as recommended by the by the CLSI [43]. Ninety-six-well polystyrene microtitre plates containing serial dilutions of each compound were inoculated with each microorganism to yield the appropriate density (1–5 × 10^3 cells/mL) in a 100-μL final volume. Each plate included (i) fungi without the addition of the compound, (ii) just the medium, and (iii) just the compound. Topical and systemic antifungal reference drugs, clotrimazole and fluconazole, were inserted in the experiment. The plates were incubated for 24 h at 35 °C. […] Three independent experiments were performed in triplicate. The antimicrobial activity of these thiazolidinones was evaluated versus 24 clinical Gram-positive (S. aureus and S. epidermidis) and Gram-negative (E. coli and Enterobacter spp.) microorganisms. The antifungal activity of these derivatives was then tested versus 16 clinical fungal isolates belonging to the most relevant Candida spp. (C. albicans, C. tropicalis, C. parapsilosis, C. sakè, and C. glabrata). Prior to testing, each isolate was cultured on a selective medium to ensure purity and optimal growth, as previously reported. The isolates were routinely identified by the morphological aspects of colonies and by biochemical identification. The used clinical isolates were collected from specimens of patients at the ‘Azienda Policlinico Umberto I’ (Sapienza University of Rome) and were obtained from hematology/oncology and surgery departments, which also included an intensive care unit. In particular, the samples were isolated from the upper and lower respiratory tract, blood, and indwelling venous catheters; the isolates were identified by conventional methodologies. Participating subjects gave their written informed consent for this study.

[1] = test system: T2, Candida sake C. sakè 3 strains; test: microbe, parasite or virus in culture; parameters: species or system clinical Candida isolates; broth microdilution antifungal MIC, visual growth inhibition, CLSI; conditions: Fermentozyma sake, 24 h; read-out: Tested Fungi (MIC Values μg/mL) / C. sakè 3 strains
T2 construct: 3 clinical isolates
Method: as §1

C. glabrata 3 strains = test system: T3, C. glabrata 3 strains; test: microbe, parasite or virus in culture; parameters: species or system clinical Candida isolates; broth microdilution antifungal MIC, visual growth inhibition, CLSI; conditions: Nakaseomyces glabratus, 24 h, read-out: Tested Fungi (MIC Values μg/mL) / C. glabrata 3 strains
T3 construct: 3 clinical isolates
Method: as §1

C. tropicalis 3 strains [2] = test system: T4, C. tropicalis 3 strains; test: microbe, parasite or virus in culture; parameters: species or system clinical Candida isolates; CLSI broth microdilution MIC, Sabouraud dextrose broth, 35 °C, visual complete growth inhibition; conditions: Candida tropicalis, 24 h, read-out: Tested Fungi (MIC Values μg/mL) / C. tropicalis 3 strains
T4 construct: 3 clinical isolates
Method: as §1

[3] = test system: T5, C. parapsilosis 2 strains; test: microbe, parasite or virus in culture; parameters: species or system clinical Candida isolates; CLSI broth microdilution MIC, Sabouraud dextrose broth, 35 °C, visual complete growth inhibition; conditions: Lodderomyces parapsilosis, 24 h, read-out: Tested Fungi (MIC Values μg/mL) / C. parapsilosis 2 strains
T5 construct: 2 clinical isolates
Method: as §1

CgNce103 = molecular target: T6, CgNce103 (Nakaseomyces glabratus, UniProt Q6FTL6); test: stopped-flow CO2 hydrase assay; assay type: biochemical
T6 construct: gene NCE103; recombinant, obtained in-house as previously reported; beta-class zinc enzyme
T6 sequence (Q6FTL6 1-219): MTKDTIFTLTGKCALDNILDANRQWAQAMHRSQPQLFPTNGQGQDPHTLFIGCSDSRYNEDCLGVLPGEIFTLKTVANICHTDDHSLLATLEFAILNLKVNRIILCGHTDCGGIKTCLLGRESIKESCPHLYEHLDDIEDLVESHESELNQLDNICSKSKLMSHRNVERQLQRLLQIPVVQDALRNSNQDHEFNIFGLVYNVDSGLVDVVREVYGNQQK

hCA II = molecular target: T7, hCA II (Homo sapiens, UniProt P00918); test: stopped-flow CO2 hydrase assay; assay type: biochemical
T7 construct: gene CA2; recombinant, obtained in-house as previously reported
Source text: stopped-flow CO2 hydrase assay on hCA II

hCA I = molecular target: T8, hCA I (Homo sapiens, UniProt P00915); test: stopped-flow CO2 hydrase assay; assay type: biochemical
T8 construct: gene CA1; recombinant, obtained in-house as previously reported
T8 sequence (P00915 2-261): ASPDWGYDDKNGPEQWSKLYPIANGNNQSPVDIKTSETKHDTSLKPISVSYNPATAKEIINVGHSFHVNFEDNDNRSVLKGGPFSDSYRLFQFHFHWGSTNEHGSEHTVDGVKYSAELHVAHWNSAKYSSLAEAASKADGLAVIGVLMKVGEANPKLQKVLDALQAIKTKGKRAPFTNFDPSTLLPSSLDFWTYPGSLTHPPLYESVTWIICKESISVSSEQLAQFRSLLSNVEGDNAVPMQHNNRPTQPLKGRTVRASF
Source text: stopped-flow CO2 hydrase assay on hCA I

C. tropicalis 3 strains [4] = test system: T4, C. tropicalis 3 strains; test: microbe, parasite or virus in culture; parameters: species or system clinical Candida isolates; broth microdilution antifungal MIC, visual growth inhibition, CLSI; conditions: Candida tropicalis, 24 h, read-out: Tested Fungi (MIC Values μg/mL) / C. tropicalis 3 strains
Method: as §1

[5] = stopped-flow CO2 hydrase assay; assay type: biochemical, Homo sapiens; conditions: read-out: hCA I

| SMILES | MIC (C. albicans 5 strains) [µg/mL] | MIC [1] [µg/mL] | MIC (C. glabrata 3 strains) [µg/mL] | MIC (C. tropicalis 3 strains [2]) [µg/mL] | MIC [3] [µg/mL] | pKi (CgNce103) | pKi (hCA II) | pKi (hCA I) | MIC (C. tropicalis 3 strains [4]) [µg/mL] | pKi [5] |
| --- | --- | --- | --- | --- | --- | --- | --- | --- | --- | --- |
| O=C(N/N=C1\SCC(=O)N1c1ccc([N+](=O)[O-])cc1)C(O)c1ccccc1 (centres unmarked) [3n] | 8 to 32 (≈ 20.7 to 82.8 µM) | 8 to 32 (≈ 20.7 to 82.8 µM) | 8 to 32 (≈ 20.7 to 82.8 µM) | 32 (≈ 82.8 µM) | 32 (≈ 82.8 µM) |  |  |  |  |  |
| O=C(N/N=C1\SCC(=O)N1c1cccc(C(F)(F)F)c1)C(O)c1ccccc1 (centres unmarked) [3o] | 16 to 32 (≈ 39.1 to 78.2 µM) | 4 to 8 (≈ 9.77 to 19.5 µM) | 4 to 8 (≈ 9.77 to 19.5 µM) | 32 (≈ 78.2 µM) | 32 (≈ 78.2 µM) | 6.92 | 4.08 | < 4.00 |  |  |
| CC1S/C(=N\NC(=O)C(O)c2ccccc2)N(c2cccc(F)c2)C1=O (centres unmarked) [4a] | 16 to 32 (≈ 42.8 to 85.7 µM) | 4 to 8 (≈ 10.7 to 21.4 µM) | 8 to 32 (≈ 21.4 to 85.7 µM) |  | 8 (≈ 21.4 µM) | 6.96 |  | < 4.00 | 8 to 32 (≈ 21.4 to 85.7 µM) | < 4.00 |
| CC1S/C(=N\NC(=O)C(O)c2ccccc2)N(c2ccc(F)cc2)C1=O (centres unmarked) [4b] | 16 to 32 (≈ 42.8 to 85.7 µM) | 4 to 8 (≈ 10.7 to 21.4 µM) | 8 to 32 (≈ 21.4 to 85.7 µM) |  | 8 (≈ 21.4 µM) | 6.32 |  | < 4.00 | 8 to 32 (≈ 21.4 to 85.7 µM) | < 4.00 |
| CC1S/C(=N\NC(=O)C(O)c2ccccc2)N(c2cccc(Cl)c2)C1=O (centres unmarked) [4c] | 16 to 32 (≈ 41 to 82.1 µM) | 4 to 8 (≈ 10.3 to 20.5 µM) | 8 to 32 (≈ 20.5 to 82.1 µM) |  | 8 (≈ 20.5 µM) | 6.92 |  | < 4.00 | 8 to 32 (≈ 20.5 to 82.1 µM) | < 4.00 |
| CC1S/C(=N\NC(=O)C(O)c2ccccc2)N(c2ccc(Cl)cc2)C1=O (centres unmarked) [4d] | 4 to 16 (≈ 10.3 to 41 µM) | 4 to 8 (≈ 10.3 to 20.5 µM) | 8 to 32 (≈ 20.5 to 82.1 µM) |  | 8 (≈ 20.5 µM) |  |  |  | 8 to 32 (≈ 20.5 to 82.1 µM) |  |
| CC1S/C(=N\NC(=O)C(O)c2ccccc2)N(c2cccc(Br)c2)C1=O (centres unmarked) [4e] | 4 to 16 (≈ 9.21 to 36.8 µM) | 4 to 8 (≈ 9.21 to 18.4 µM) | 4 to 8 (≈ 9.21 to 18.4 µM) |  | 32 (≈ 73.7 µM) | 6.25 | 4.17 | < 4.00 | 4 to 8 (≈ 9.21 to 18.4 µM) |  |
| CC1S/C(=N\NC(=O)C(O)c2ccccc2)N(c2ccc(Br)cc2)C1=O (centres unmarked) [4f] | 4 to 16 (≈ 9.21 to 36.8 µM) | 4 to 8 (≈ 9.21 to 18.4 µM) | 4 to 8 (≈ 9.21 to 18.4 µM) |  | 32 (≈ 73.7 µM) | 6.96 |  | < 4.00 | 4 to 8 (≈ 9.21 to 18.4 µM) | < 4.00 |
| Cc1cccc(N2C(=O)C(C)S/C2=N\NC(=O)C(O)c2ccccc2)c1 (centres unmarked) [4g] | 4 to 16 (≈ 10.8 to 43.3 µM) | 4 to 8 (≈ 10.8 to 21.7 µM) | 4 to 8 (≈ 10.8 to 21.7 µM) |  | 32 (≈ 86.6 µM) | 6.30 |  | < 4.00 | 4 to 8 (≈ 10.8 to 21.7 µM) | < 4.00 |
| Cc1ccc(N2C(=O)C(C)S/C2=N\NC(=O)C(O)c2ccccc2)cc1 (centres unmarked) [4h] | 8 to 32 (≈ 21.7 to 86.6 µM) | 8 to 32 (≈ 21.7 to 86.6 µM) | 8 to 32 (≈ 21.7 to 86.6 µM) | 16 (≈ 43.3 µM) | 32 (≈ 86.6 µM) | 7.05 |  | < 4.00 |  | < 4.00 |
| COc1ccc(N2C(=O)C(C)S/C2=N\NC(=O)C(O)c2ccccc2)cc1 (centres unmarked) [4i] | 8 to 32 (≈ 20.8 to 83 µM) | 8 to 32 (≈ 20.8 to 83 µM) | 8 to 32 (≈ 20.8 to 83 µM) | 16 (≈ 41.5 µM) | 32 (≈ 83 µM) | 6.16 |  | < 4.00 |  | < 4.00 |
| CC1S/C(=N\NC(=O)C(O)c2ccccc2)N(c2ccc([N+](=O)[O-])cc2)C1=O (centres unmarked) [4j] | 8 to 32 (≈ 20 to 79.9 µM) | 8 to 32 (≈ 20 to 79.9 µM) | 8 to 32 (≈ 20 to 79.9 µM) | 16 (≈ 40 µM) | 32 (≈ 79.9 µM) |  |  |  |  |  |
| CC1S/C(=N\NC(=O)C(O)c2ccccc2)N(c2cccc(C(F)(F)F)c2)C1=O (centres unmarked) [4k] | 32 to 128 (≈ 75.6 to 302 µM) | 8 to 32 (≈ 18.9 to 75.6 µM) | 8 to 32 (≈ 18.9 to 75.6 µM) | 128 (≈ 302 µM) | 64 (≈ 151 µM) | 6.96 |  | < 4.00 |  | < 4.00 |
